Laboratory results: patent publication US20240254117A1, “PYRIMIDO-HETEROCYCLIC COMPOUNDS, AND PREPARATION METHOD THEREFOR AND USE THEREOF” (SHANGHAI RINGENE BIOPHARMA CO., LTD., priority 2020, published 2024)
Like-named read-outs stand apart in the source and are kept apart here.

Test system: pERK
Assay: p-ERK level in PC9 cells (AlphaLISA SureFire Ultra p-ERK1/2)
Type: cell-based
Settings: Homo sapiens, read-out: SOS1 pERK IC50
Procedure: PC9 cells were seeded in 384-well cell culture plate (40 μL/well) according to a certain concentration and placed in a cell culture incubator with 37° C. and 5% CO2 overnight. On the next day, the plate was added with serially diluted test compounds (5 concentrations, 3-fold dilution, the highest concentration was 10 uM) for 1 hour, and then the lysate containing protease and phosphatase inhibitor was added to lyse the cells-extracted proteins, cellular pERK levels were measured using the AlphaLISASureFire Ultra p ERK1/2 assay kit (PerkinElmer). The standard AlphaLISA settings on the Envision plate reader (PerkinElmer) was used to read the signal. Raw data were analyzed in Excel (Microsoft) and Prism (GraphPad). The signal was plotted against the common logarithm of compound concentration and IC50 was calculated by fitting a four parameter non-linear regression curve.

[1] = PC-9, PC9 cells, 1 hour compound treatment

IC50 [1] [nM]	Compound	IC50 (PC-9, 1 h) [nM]
	COC1(c2cc3c(N[C@H](C)c4cc(N)cc(C(F)(F)F)c4)nc(C)nc3n3ccnc23)CC2CCC(C1)N2C(C)C (stereo partly shown) [Example 93]	< 1000
	COC1(c2cc3c(N[C@H](C)c4cc(N)cc(C(F)(F)F)c4)nc(C)nc3n3ccnc23)CC2CCC(C1)N2C (stereo partly shown) [Example 92]	< 1000
< 1000	Cc1nc(N[C@H](C)c2cc(N)cc(C(F)(F)F)c2)c2cc(C3(C#N)CCS(=O)(=O)CC3)c3nccn3c2n1 [Example 78]	
< 1000	COC1(c2cc3c(N[C@H](C)c4cc(N)cc(C(F)(F)F)c4)nc(C)nc3n3ccnc23)CCN(C(=O)C(C)C)CC1 [Example 89]	
< 1000	COC1(c2cc3c(N[C@H](C)c4cc(N)cc(C(F)(F)F)c4)nc(C)nc3n3ccnc23)CCOCC1 [Example 75]	
< 1000	Cc1nc(N[C@H](C)c2cc(N)cc(C(F)(F)F)c2)c2cc(C3(C#N)CCN(C(=O)C(C)C)CC3)c3nccn3c2n1 [Example 90]	
< 1000	COC1(c2cc3c(N[C@H](C)c4cccc(C(F)(F)F)c4C)nc(C)nc3n3ccnc23)CCOCC1 [Example 79]	
	COC1(c2cc3c(N[C@H](C)c4cc(N)cc(C(F)(F)F)c4)nc(C)nc3n3ccnc23)CC2CCC(C1)N2C(=O)C(C)C (stereo partly shown) [Example 91]	< 1000
< 1000	Cc1nc(N[C@H](C)c2cccc(C(F)(F)F)c2C)c2cc(C3(C#N)CCS(=O)(=O)CC3)c3nccn3c2n1 [Example 80]	
< 1000	COC1(c2cc3c(N[C@H](C)c4cc(N)cc(C(F)(F)F)c4)nc(C)nc3n3ccnc23)CCN(C(C)=O)CC1 [Example 76]	
	CC(=O)N1CCC(O)(c2cc3c(N[C@H](C)c4cc(N)cc(C(F)(F)F)c4)nc(C)nc3n3ccnc23)CC1 [Example 85, (R)-1-(4-(4-((1-(3-amino-5-(trifluoromethyl)phenyl)ethyl)amino)-2-methylimidazole [1′,2′:1,6]pyrido [2,3-d]pyrimidin-6-yl)-4-hydroxypiperidin-1-yl) ethyl-1-one]	< 1000
< 1000	COC1(c2cc3c(N[C@H](C)c4cc(N)cc(C(F)(F)F)c4)nc(C)nc3n3ccnc23)CCS(=O)(=O)CC1 [Example 77]	

Compound	IC50 [1] [nM]	IC50 (PC-9, 1 h) [nM]
COC1(c2cc3c(N[C@H](C)c4cccc(C(F)(F)F)c4C)nc(C)nc3n3ccnc23)CCN(C(C)C)CC1 [Example 81]	< 1000	
